Legend:
Test in all cases: Weeding effect in post-emergence stage
Assay type in all cases: in vivo
Echinochloa crusgalli = conditions: for Weeding effect in post-emergence stage, Echinochloa crusgalli: level of fresh weight growth control rate; for Weeding effect in post-emergence stage, Echinochloa crusgalli (level): fresh weight control rate level
Method in brief: (§1)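 Compound, dissolved in acetone and diluted in water with Tween 80 plus methyl oleate EC (1.5 liter/ha), is sprayed onto 2-3 leaf potted plants. Rates span 7.5–500 g/ha. After 3 weeks of greenhouse culture, weeding effect is counted as the mean of triplicates.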

Eleusine indica = conditions: for Weeding effect in post-emergence stage, Eleusine indica: level of fresh weight growth control rate; for Weeding effect in post-emergence stage, Eleusine indica (level): fresh weight control rate level
Method in brief: as §1

Digitaria sanguinalis = conditions: for Weeding effect in post-emergence stage, Digitaria sanguinalis: level of fresh weight growth control rate; for Weeding effect in post-emergence stage, Digitaria sanguinalis (level): fresh weight control rate level
Method in brief: as §1

Alopecurus japonicus = conditions: for Weeding effect in post-emergence stage, Alopecurus japonicus: level of fresh weight growth control rate; for Weeding effect in post-emergence stage, Alopecurus japonicus (level): fresh weight control rate level
Method in brief: as §1

Setaria viridis = conditions: for Weeding effect in post-emergence stage, Setaria viridis: level of fresh weight growth control rate; for Weeding effect in post-emergence stage, Setaria viridis (level): fresh weight control rate level
Method in brief: as §1

Abutilon theophrasti = conditions: for Weeding effect in post-emergence stage, Abutilon theophrasti: level of fresh weight growth control rate; for Weeding effect in post-emergence stage, Abutilon theophrasti (level): fresh weight control rate level
Method in brief: as §1

| SMILES | Weeding effect in post-emergence stage, Echinochloa crusgalli (Echinochloa crusgalli; Dose 15 g/ha) | Weeding effect in post-emergence stage, Eleusine indica (Eleusine indica; Dose 15 g/ha) | Weeding effect in post-emergence stage, Digitaria sanguinalis (Digitaria sanguinalis; Dose 15 g/ha) | Weeding effect in post-emergence stage, Alopecurus japonicus (Alopecurus japonicus; Dose 15 g/ha) | Weeding effect in post-emergence stage, Setaria viridis (Setaria viridis; Dose 15 g/ha) | Weeding effect in post-emergence stage, Abutilon theophrasti (Abutilon theophrasti; Dose 15 g/ha) | also measured |
| --- | --- | --- | --- | --- | --- | --- | --- |
| CC(O/N=C/c1cc(-n2c(=O)cc(C(F)(F)F)n(C)c2=O)c(F)cc1Cl)C(=O)OCC(C)(F)F (racemic) [Compound 220] | 5 (Level 5: growth control rate is above 85%) | 5 (Level 5: growth control rate is above 85%) | 5 (Level 5: growth control rate is above 85%) | 5 (Level 5: growth control rate is above 85%) | 5 (Level 5: growth control rate is above 85%) | 5 (Level 5: growth control rate is above 85%) |  |
| COC(=O)CCNC(=O)C(C)O/N=C/c1cc(-n2c(=O)cc(C(F)(F)F)n(C)c2=O)c(F)cc1Cl (stereo not drawn) [Compound 416] |  |  |  |  |  |  | Weeding effect in post-emergence stage, Echinochloa crusgalli (level) (Echinochloa crusgalli; Dose 15 g/ha): 5 (Level 5: growth control rate is above 85%); Weeding effect in post-emergence stage, Eleusine indica (level) (Eleusine indica; Dose 15 g/ha): 5 (Level 5: growth control rate is above 85%); Weeding effect in post-emergence stage, Digitaria sanguinalis (level) (Digitaria sanguinalis; Dose 15 g/ha): 5 (Level 5: growth control rate is above 85%); Weeding effect in post-emergence stage, Alopecurus japonicus (level) (Alopecurus japonicus; Dose 15 g/ha): 4 (Level 4: growth control rate is greater than or equal to 60% and less than 85%); Weeding effect in post-emergence stage, Setaria viridis (level) (Setaria viridis; Dose 15 g/ha): 5 (Level 5: growth control rate is above 85%); Weeding effect in post-emergence stage, Abutilon theophrasti (level) (Abutilon theophrasti; Dose 15 g/ha): 5 (Level 5: growth control rate is above 85%) |
| CC(O/N=C/c1cc(-n2c(=O)cc(C(F)(F)F)n(C)c2=O)c(F)cc1Cl)C(=O)OCc1cccc(F)c1 (stereo not drawn) [Compound 285] |  |  |  |  |  |  | Weeding effect in post-emergence stage, Echinochloa crusgalli (Echinochloa crusgalli; Dose 30 g/ha): 5 (Level 5: growth control rate is above 85%); Weeding effect in post-emergence stage, Eleusine indica (Eleusine indica; Dose 30 g/ha): 5 (Level 5: growth control rate is above 85%); Weeding effect in post-emergence stage, Digitaria sanguinalis (Digitaria sanguinalis; Dose 30 g/ha): 5 (Level 5: growth control rate is above 85%); Weeding effect in post-emergence stage, Alopecurus japonicus (Alopecurus japonicus; Dose 30 g/ha): 5 (Level 5: growth control rate is above 85%); Weeding effect in post-emergence stage, Setaria viridis (Setaria viridis; Dose 30 g/ha): 5 (Level 5: growth control rate is above 85%); Weeding effect in post-emergence stage, Abutilon theophrasti (Abutilon theophrasti; Dose 30 g/ha): 5 (Level 5: growth control rate is above 85%) |
| CCOC(=O)[C@@H](C)O/N=C/c1cc(-n2c(=O)n(C)c(=S)n(C)c2=O)c(F)cc1C(F)(F)F [86(R)] | 4 (Level 4: growth control rate is greater than or equal to 60% and less than 85%) | 5 (Level 5: growth control rate is above 85%) | 3 (Level 3: growth control rate is greater than or equal to 40% and less than 60%) | 3 (Level 3: growth control rate is greater than or equal to 40% and less than 60%) | 4 (Level 4: growth control rate is greater than or equal to 60% and less than 85%) | 5 (Level 5: growth control rate is above 85%) |  |
| CCOC(=O)COC(=O)C(C)O/N=C/c1cc(-n2c(=O)cc(C(F)(F)F)n(C)c2=O)c(F)cc1Cl (stereo not drawn) [Compound 239] | 5 (Level 5: growth control rate is above 85%) | 5 (Level 5: growth control rate is above 85%) | 5 (Level 5: growth control rate is above 85%) | 5 (Level 5: growth control rate is above 85%) | 5 (Level 5: growth control rate is above 85%) | 5 (Level 5: growth control rate is above 85%) |  |
| CCC[C@@H](O/N=C/c1cc(-n2c(=O)cc(C(F)(F)F)n(C)c2=O)c(F)cc1Cl)C(=O)OC [316(R)] | 5 (Level 5: growth control rate is above 85%) | 5 (Level 5: growth control rate is above 85%) | 5 (Level 5: growth control rate is above 85%) | 5 (Level 5: growth control rate is above 85%) | 5 (Level 5: growth control rate is above 85%) | 5 (Level 5: growth control rate is above 85%) |  |
| CCOC(=O)CO/N=C/c1cc(-n2c(=O)cc(C(F)(F)F)[nH]c2=O)ccc1Cl [Control compound B, reference compound] |  |  |  |  |  |  | Weeding effect in post-emergence stage, Echinochloa crusgalli (level) (Echinochloa crusgalli; Dose 15 g/ha): 2 (Level 2: growth control rate is greater than or equal to 20% and less than 40%); Weeding effect in post-emergence stage, Eleusine indica (level) (Eleusine indica; Dose 15 g/ha): 1 (Level 1: growth control rate is greater than or equal to 5% and less than 20%); Weeding effect in post-emergence stage, Digitaria sanguinalis (level) (Digitaria sanguinalis; Dose 15 g/ha): 2 (Level 2: growth control rate is greater than or equal to 20% and less than 40%); Weeding effect in post-emergence stage, Alopecurus japonicus (level) (Alopecurus japonicus; Dose 15 g/ha): 1 (Level 1: growth control rate is greater than or equal to 5% and less than 20%); Weeding effect in post-emergence stage, Setaria viridis (level) (Setaria viridis; Dose 15 g/ha): 2 (Level 2: growth control rate is greater than or equal to 20% and less than 40%); Weeding effect in post-emergence stage, Abutilon theophrasti (level) (Abutilon theophrasti; Dose 15 g/ha): 3 (Level 3: growth control rate is greater than or equal to 40% and less than 60%) |
| CC(O/N=C/c1cc(-n2c(=O)n(C)c(=S)n(C)c2=O)c(F)cc1Cl)C(=O)OCc1ccccc1 (stereo not drawn) [Compound 42] | 5 (Level 5: growth control rate is above 85%) | 5 (Level 5: growth control rate is above 85%) | 5 (Level 5: growth control rate is above 85%) | 4 (Level 4: growth control rate is greater than or equal to 60% and less than 85%) | 5 (Level 5: growth control rate is above 85%) | 5 (Level 5: growth control rate is above 85%) |  |
| COCCOC(=O)C(C)O/N=C/c1cc(-n2c(=O)cc(C(F)(F)F)n(C)c2=O)c(F)cc1Cl (stereo not drawn) [Compound 230] | 5 (Level 5: growth control rate is above 85%) | 5 (Level 5: growth control rate is above 85%) | 5 (Level 5: growth control rate is above 85%) | 5 (Level 5: growth control rate is above 85%) | 5 (Level 5: growth control rate is above 85%) | 5 (Level 5: growth control rate is above 85%) |  |
| C[C@@H](O/N=C/c1cc(-n2c(=O)cc(C(F)(F)F)n(C)c2=O)c(F)cc1Cl)C(=O)OCc1ccc(F)cc1 [286(R)] |  |  |  |  |  |  | Weeding effect in post-emergence stage, Echinochloa crusgalli (Echinochloa crusgalli; Dose 30 g/ha): 5 (Level 5: growth control rate is above 85%); Weeding effect in post-emergence stage, Eleusine indica (Eleusine indica; Dose 30 g/ha): 5 (Level 5: growth control rate is above 85%); Weeding effect in post-emergence stage, Digitaria sanguinalis (Digitaria sanguinalis; Dose 30 g/ha): 5 (Level 5: growth control rate is above 85%); Weeding effect in post-emergence stage, Alopecurus japonicus (Alopecurus japonicus; Dose 30 g/ha): 5 (Level 5: growth control rate is above 85%); Weeding effect in post-emergence stage, Setaria viridis (Setaria viridis; Dose 30 g/ha): 5 (Level 5: growth control rate is above 85%); Weeding effect in post-emergence stage, Abutilon theophrasti (Abutilon theophrasti; Dose 30 g/ha): 5 (Level 5: growth control rate is above 85%) |
| C=C(Cl)COC(=O)C(C)O/N=C/c1cc(-n2c(=O)cc(C(F)(F)F)n(C)c2=O)c(F)cc1Cl (stereo not drawn) [Compound 501] |  |  |  |  |  |  | Weeding effect in post-emergence stage, Echinochloa crusgalli (level) (Echinochloa crusgalli; Dose 15 g/ha): 5 (Level 5: growth control rate is above 85%); Weeding effect in post-emergence stage, Eleusine indica (level) (Eleusine indica; Dose 15 g/ha): 5 (Level 5: growth control rate is above 85%); Weeding effect in post-emergence stage, Digitaria sanguinalis (level) (Digitaria sanguinalis; Dose 15 g/ha): 5 (Level 5: growth control rate is above 85%); Weeding effect in post-emergence stage, Alopecurus japonicus (level) (Alopecurus japonicus; Dose 15 g/ha): 5 (Level 5: growth control rate is above 85%); Weeding effect in post-emergence stage, Setaria viridis (level) (Setaria viridis; Dose 15 g/ha): 5 (Level 5: growth control rate is above 85%); Weeding effect in post-emergence stage, Abutilon theophrasti (level) (Abutilon theophrasti; Dose 15 g/ha): 5 (Level 5: growth control rate is above 85%) |
| COC(=O)C(Cc1ccccc1)O/N=C/c1cc(-n2c(=O)cc(C(F)(F)F)n(C)c2=O)c(F)cc1Cl (racemic) [Compound 469] |  |  |  |  |  |  | Weeding effect in post-emergence stage, Echinochloa crusgalli (level) (Echinochloa crusgalli; Dose 15 g/ha): 5 (Level 5: growth control rate is above 85%); Weeding effect in post-emergence stage, Eleusine indica (level) (Eleusine indica; Dose 15 g/ha): 5 (Level 5: growth control rate is above 85%); Weeding effect in post-emergence stage, Digitaria sanguinalis (level) (Digitaria sanguinalis; Dose 15 g/ha): 5 (Level 5: growth control rate is above 85%); Weeding effect in post-emergence stage, Alopecurus japonicus (level) (Alopecurus japonicus; Dose 15 g/ha): 5 (Level 5: growth control rate is above 85%); Weeding effect in post-emergence stage, Setaria viridis (level) (Setaria viridis; Dose 15 g/ha): 5 (Level 5: growth control rate is above 85%); Weeding effect in post-emergence stage, Abutilon theophrasti (level) (Abutilon theophrasti; Dose 15 g/ha): 5 (Level 5: growth control rate is above 85%) |
| COC(=O)C(C)(C)O/N=C/c1cc(-n2c(=O)n(C)c(=S)n(C)c2=O)c(F)cc1Cl [Compound 189] | 4 (Level 4: growth control rate is greater than or equal to 60% and less than 85%) | 5 (Level 5: growth control rate is above 85%) | 4 (Level 4: growth control rate is greater than or equal to 60% and less than 85%) | 4 (Level 4: growth control rate is greater than or equal to 60% and less than 85%) | 5 (Level 5: growth control rate is above 85%) | 5 (Level 5: growth control rate is above 85%) |  |
| C[C@@H](O/N=C/c1cc(-n2c(=O)n(C)c(=S)n(C)c2=O)c(F)cc1Cl)C(=O)O [438(R)] |  |  |  |  |  |  | Weeding effect in post-emergence stage, Echinochloa crusgalli (level) (Echinochloa crusgalli; Dose 30 g/ha): 5 (Level 5: growth control rate is above 85%); Weeding effect in post-emergence stage, Eleusine indica (level) (Eleusine indica; Dose 30 g/ha): 5 (Level 5: growth control rate is above 85%); Weeding effect in post-emergence stage, Digitaria sanguinalis (level) (Digitaria sanguinalis; Dose 30 g/ha): 5 (Level 5: growth control rate is above 85%); Weeding effect in post-emergence stage, Alopecurus japonicus (level) (Alopecurus japonicus; Dose 30 g/ha): 5 (Level 5: growth control rate is above 85%); Weeding effect in post-emergence stage, Setaria viridis (level) (Setaria viridis; Dose 30 g/ha): 5 (Level 5: growth control rate is above 85%); Weeding effect in post-emergence stage, Abutilon theophrasti (level) (Abutilon theophrasti; Dose 30 g/ha): 5 (Level 5: growth control rate is above 85%) |
